Assay results published in patent publication US10160726B2, “Quinolone derivatives as antibacterials” (priority 2014, dated 2018).
In brackets after ≈: the same amount, converted by molar mass. Read-outs that look alike come from different tables or passages of the source.

Legend:
Format in all cases: cell-based
[1] = system: P. aeruginosa NB52023-CDK0006 (gyrA T83I, parC S87L); experiment: microbe, parasite or virus in culture; conditions: Pseudomonas aeruginosa, 20 h, read-out: Antibacterial activity (MIC) NB52023-CDK0006
[2] = system: S. aureus ATCC 29213 (NB01001); experiment: MIC, broth microdilution (CLSI); conditions: Staphylococcus aureus, ATCC29213; S. aureus ATCC 29213; 35° C., 20 hours; read-out: Antibacterial activity (MIC) NB01001
[3] = system: E. coli ATCC 25922 (NB27001); experiment: MIC, broth microdilution (CLSI); conditions: Escherichia coli, ATCC25922; E. coli ATCC 25922; 35° C., 20 hours; read-out: Antibacterial activity (MIC) NB27001
[4] = system: P. aeruginosa NB52023 (efflux deficient K1542, ΔmexX ΔmexB); experiment: microbe, parasite or virus in culture; conditions: Pseudomonas aeruginosa, 20 h, read-out: Antibacterial activity (MIC) NB52023
[5] = system: E. coli NB27177 (efflux deficient CGSC 11430, ΔtolC732::kan); experiment: microbe, parasite or virus in culture; conditions: Escherichia coli, 20 h, read-out: Antibacterial activity (MIC) NB27177
[6] = system: S. aureus NB01006-AVR005 (gyrA S84L, grlA S80F, grlB E471K); experiment: microbe, parasite or virus in culture; conditions: Staphylococcus aureus, 20 h, read-out: Antibacterial activity (MIC) NB01006-AVR005
[7] = system: P. aeruginosa NB52019 (wild-type PAO1); experiment: MIC, broth microdilution (CLSI); conditions: Pseudomonas aeruginosa, read-out: Antibacterial activity (MIC) NB52019
[8] = P. aeruginosa wild-type PAO1, 35° C., 20 hours

Row | SMILES | MIC [1] [µg/mL] | MIC [2] [µg/mL] | MIC [3] [µg/mL] | MIC [4] [µg/mL] | MIC [5] [µg/mL] | MIC [6] [µg/mL] | MIC ([7]; PAO1, 20 h) [µg/mL] | MIC [7, 8] [µg/mL]
1 | COc1cc2cc(F)c(N3CC[C@@H]([C@H](C)N)C3)c(C)c2n(C2CC2)c1=O [Example 6, 7-((R)-3-((S)-1-aminoethyl)pyrrolidin-1-yl)-1-cyclopropyl-6-fluoro-3-methoxy-8-methylquinolin-2(1H)-one] | 32 (≈ 89 µM) | 0.125 (≈ 0.348 µM) | 2 (≈ 5.56 µM) | 8 (≈ 22.3 µM) | 0.125 (≈ 0.348 µM) | 0.5 (≈ 1.39 µM) | 32 (≈ 89 µM) | –
2 | COc1cc2cc(F)c(-c3ccc(N)nc3)c(C)c2n(C2CC2)c1=O [Example 7, 7-(6-aminopyridin-3-yl)-1-cyclopropyl-6-fluoro-3-methoxy-8-methylquinolin-2(1H)-one] | > 32 | 2 (≈ 5.89 µM) | 32 (≈ 94.3 µM) | > 32 | 0.25 (≈ 0.737 µM) | 4 (≈ 11.8 µM) | > 32 | –
3 | Cc1c(N2CC[C@@H]([C@H](C)N)C2)c(F)cc2c(-c3cn[nH]c3)cc(=O)n(C3CC3)c12 [Example 18, 7-((R)-3-((S)-1-aminoethyl)pyrrolidin-1-yl)-1-cyclopropyl-6-fluoro-8-methyl-4-(1H-pyrazol-4-yl)quinolin-2(1H)-one] | 16 (≈ 40.5 µM) | 0.5 (≈ 1.26 µM) | 32 (≈ 80.9 µM) | 8 (≈ 20.2 µM) | 0.125 (≈ 0.316 µM) | 0.25 (≈ 0.632 µM) | 32 (≈ 80.9 µM) | –
4 | Cc1c(N2CC[C@@H]([C@H](C)N)C2)c(F)cc2c(-c3ccccc3)cc(=O)n(C3CC3)c12 [Example 19, 7-((R)-3-((S)-1-aminoethyl)pyrrolidin-1-yl)-1-cyclopropyl-6-fluoro-8-methyl-4-phenylquinolin-2(1H)-one] | > 32 | 0.5 (≈ 1.23 µM) | 32 (≈ 78.9 µM) | > 32 | 0.5 (≈ 1.23 µM) | 0.5 (≈ 1.23 µM) | – | > 32
5 | Cc1c(N2CC[C@@H]([C@H](C)N)C2)c(F)cc2c(-c3cc(F)c(O)c(F)c3)cc(=O)n(C3CC3)c12 [Example 20, 7-((R)-3-((S)-1-aminoethyl)pyrrolidin-1-yl)-1-cyclopropyl-4-(3,5-difluoro-4-hydroxyphenyl)-6-fluoro-8-methylquinolin-2(1H)-one] | 16 (≈ 35 µM) | 0.5 (≈ 1.09 µM) | 32 (≈ 69.9 µM) | 32 (≈ 69.9 µM) | 0.125 (≈ 0.273 µM) | 0.25 (≈ 0.546 µM) | > 32 | –
6 | CCOC(=O)/C=C/c1cc(=O)n(C2CC2)c2c(C)c(N3CC[C@@H]([C@H](C)N)C3)c(F)cc12 [Example 21, (E)-ethyl 3-(7-((R)-3-((S)-1-aminoethyl)pyrrolidin-1-yl)-1-cyclopropyl-6-fluoro-8-methyl-2-oxo-1,2-dihydroquinolin-4-yl)acrylate] | 32 (≈ 74.9 µM) | 0.125 (≈ 0.292 µM) | 16 (≈ 37.4 µM) | 32 (≈ 74.9 µM) | 0.125 (≈ 0.292 µM) | 0.125 (≈ 0.292 µM) | > 32 | –
7 | Cc1c(N2CC[C@H](O)C2)c(F)c(F)c2c(CN3CCN(C)CC3)cc(=O)n(C3CC3)c12 [Example 90, (S)-1-cyclopropyl-5,6-difluoro-7-(3-hydroxypyrrolidin-1-yl)-8-methyl-4-((4-methylpiperazin-1-yl)methyl)quinolin-2(1H)-one trifluoro acetic acid] | 32 (≈ 74 µM) | 0.125 (≈ 0.289 µM) | 16 (≈ 37 µM) | 32 (≈ 74 µM) | – | 0.125 (≈ 0.289 µM) | > 32 | –
8 | Cc1c(N2CCC(F)(CN)C2)c(F)cc2cc(CO)c(=O)n(C3CC3)c12 (stereo not drawn) [Example 96, 7-(3-(aminomethyl)-3-fluoropyrrolidin-1-yl)-1-cyclopropyl-6-fluoro-3-(hydroxymethyl)-8-methylquinolin-2(1H)-one] | 8 (≈ 22 µM) | 0.5 (≈ 1.38 µM) | 2 (≈ 5.5 µM) | 8 (≈ 22 µM) | – | 1 (≈ 2.75 µM) | 32 (≈ 88.1 µM) | –
9 | COc1c(N2CCC(CN)C2)c(F)cc2ccc(=O)n(C3CC3)c12.O=C(O)C(F)(F)F (stereo not drawn) [Example 110, 7-(3-(aminomethyl)pyrrolidin-1-yl)-1-cyclopropyl-6-fluoro-8-methoxyquinolin-2(1H)-one TFA salt] | 32 | 0.25 | 4 | 16 | – | 0.125 | – | > 32
